{
  "source": "PubChem BioAssay (NCI)",
  "assay_in_all_cases": "NCI anticancer screen, dose series, 48 h",
  "key": {"MDA-MB-231 breast": {"tested_on": "MDA-MB-231 breast"}, "HCT-116 colon": {"tested_on": "HCT-116 colon"}, "EKVX NSCLC": {"tested_on": "EKVX NSCLC"}, "A549 NSCLC": {"tested_on": "A549 NSCLC"}, "IGROV1 ovarian": {"tested_on": "IGROV1 ovarian"}, "HCT-15 colon": {"tested_on": "HCT-15 colon"}, "SK-MEL-28 melanoma": {"tested_on": "SK-MEL-28 melanoma"}, "BT-549 breast": {"tested_on": "BT-549 breast"}, "PC-3 prostate": {"tested_on": "PC-3 prostate"}, "MALME-3M melanoma": {"tested_on": "MALME-3M melanoma"}, "SNB-19 CNS": {"tested_on": "SNB-19 CNS"}, "M14 melanoma": {"tested_on": "M14 melanoma"}, "TK-10 renal": {"tested_on": "TK-10 renal"}, "KM12 colon": {"tested_on": "KM12 colon"}, "HT29 colon": {"tested_on": "HT29 colon"}, "SW-620 colon": {"tested_on": "SW-620 colon"}, "HCC-2998 colon": {"tested_on": "HCC-2998 colon"}, "SF-268 CNS": {"tested_on": "SF-268 CNS"}, "SF-295 CNS": {"tested_on": "SF-295 CNS"}, "COLO 205 colon": {"tested_on": "COLO 205 colon"}, "UACC-257 melanoma": {"tested_on": "UACC-257 melanoma"}, "SF-539 CNS": {"tested_on": "SF-539 CNS"}, "OVCAR-8 ovarian": {"tested_on": "OVCAR-8 ovarian"}, "U251 CNS": {"tested_on": "U251 CNS"}, "SNB-75 CNS": {"tested_on": "SNB-75 CNS"}, "A498 renal": {"tested_on": "A498 renal"}, "ACHN renal": {"tested_on": "ACHN renal"}, "RXF 393 renal": {"tested_on": "RXF 393 renal"}, "SK-OV-3 ovarian": {"tested_on": "SK-OV-3 ovarian"}},
  "note": "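These data come from cells grown in 96-well plates and exposed to compound for 48 hours at five concentrations. GI50: concentration for 50% inhibition of growth. TGI: total growth inhibition.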",
  "data": [
    {"smiles": "O=C(NC1CCCCC1)OCc1c(COC(=O)NC2CCCCC2)c(-c2ccc(Cl)c(Cl)c2)n2c1CCC2", "values": [
      {"measurement": "GI50", "setting": "MDA-MB-231 breast", "value": 5.6, "unit": "µM"},
      {"measurement": "TGI", "setting": "MDA-MB-231 breast", "value": 50.7, "unit": "µM"},
      {"measurement": "GI50", "setting": "HCT-116 colon", "value": 3.72, "unit": "µM"},
      {"measurement": "TGI", "setting": "HCT-116 colon", "value": 15.2, "unit": "µM"},
      {"measurement": "GI50", "setting": "EKVX NSCLC", "value": 9.79, "unit": "µM"},
      {"measurement": "TGI", "setting": "EKVX NSCLC", "value": 94.4, "unit": "µM"},
      {"measurement": "GI50", "setting": "A549 NSCLC", "value": 7.47, "unit": "µM"},
      {"measurement": "TGI", "setting": "A549 NSCLC", "value": 94.2, "unit": "µM"},
      {"measurement": "GI50", "setting": "IGROV1 ovarian", "value": 5.62, "unit": "µM"},
      {"measurement": "TGI", "setting": "IGROV1 ovarian", "value": "> 100", "unit": "µM"},
      {"measurement": "GI50", "setting": "HCT-15 colon", "value": 5.56, "unit": "µM"},
      {"measurement": "TGI", "setting": "HCT-15 colon", "value": 43.2, "unit": "µM"},
      {"measurement": "GI50", "setting": "SK-MEL-28 melanoma", "value": 14.2, "unit": "µM"},
      {"measurement": "TGI", "setting": "SK-MEL-28 melanoma", "value": 45.3, "unit": "µM"},
      {"measurement": "GI50", "setting": "BT-549 breast", "value": 3.53, "unit": "µM"},
      {"measurement": "TGI", "setting": "BT-549 breast", "value": 14.2, "unit": "µM"},
      {"measurement": "GI50", "setting": "PC-3 prostate", "value": 6.05, "unit": "µM"},
      {"measurement": "TGI", "setting": "PC-3 prostate", "value": 29.3, "unit": "µM"},
      {"measurement": "GI50", "setting": "MALME-3M melanoma", "value": 5.92, "unit": "µM"},
      {"measurement": "TGI", "setting": "MALME-3M melanoma", "value": 22.7, "unit": "µM"},
      {"measurement": "GI50", "setting": "SNB-19 CNS", "value": 5.79, "unit": "µM"},
      {"measurement": "TGI", "setting": "SNB-19 CNS", "value": 47.6, "unit": "µM"},
      {"measurement": "GI50", "setting": "M14 melanoma", "value": 4.17, "unit": "µM"},
      {"measurement": "TGI", "setting": "M14 melanoma", "value": 16.3, "unit": "µM"},
      {"measurement": "GI50", "setting": "TK-10 renal", "value": 3.72, "unit": "µM"},
      {"measurement": "TGI", "setting": "TK-10 renal", "value": 31.7, "unit": "µM"},
      {"measurement": "GI50", "setting": "KM12 colon", "value": 11.9, "unit": "µM"},
      {"measurement": "TGI", "setting": "KM12 colon", "value": 29.3, "unit": "µM"},
      {"measurement": "GI50", "setting": "HT29 colon", "value": 4.97, "unit": "µM"},
      {"measurement": "TGI", "setting": "HT29 colon", "value": 71.4, "unit": "µM"},
      {"measurement": "GI50", "setting": "SW-620 colon", "value": 3.89, "unit": "µM"},
      {"measurement": "TGI", "setting": "SW-620 colon", "value": 22.6, "unit": "µM"},
      {"measurement": "GI50", "setting": "HCC-2998 colon", "value": 10.5, "unit": "µM"},
      {"measurement": "TGI", "setting": "HCC-2998 colon", "value": 23, "unit": "µM"},
      {"measurement": "GI50", "setting": "SF-268 CNS", "value": 3.79, "unit": "µM"},
      {"measurement": "TGI", "setting": "SF-268 CNS", "value": 21.3, "unit": "µM"},
      {"measurement": "GI50", "setting": "SF-295 CNS", "value": 3.38, "unit": "µM"},
      {"measurement": "TGI", "setting": "SF-295 CNS", "value": 29.1, "unit": "µM"},
      {"measurement": "GI50", "setting": "COLO 205 colon", "value": 4.2, "unit": "µM"},
      {"measurement": "TGI", "setting": "COLO 205 colon", "value": 16.6, "unit": "µM"},
      {"measurement": "GI50", "setting": "UACC-257 melanoma", "value": 10.8, "unit": "µM"},
      {"measurement": "TGI", "setting": "UACC-257 melanoma", "value": 37.4, "unit": "µM"},
      {"measurement": "GI50", "setting": "SF-539 CNS", "value": 3.06, "unit": "µM"},
      {"measurement": "TGI", "setting": "SF-539 CNS", "value": 13.7, "unit": "µM"},
      {"measurement": "GI50", "setting": "OVCAR-8 ovarian", "value": 4.3, "unit": "µM"},
      {"measurement": "TGI", "setting": "OVCAR-8 ovarian", "value": 32.3, "unit": "µM"},
      {"measurement": "GI50", "setting": "U251 CNS", "value": 4.43, "unit": "µM"},
      {"measurement": "TGI", "setting": "U251 CNS", "value": 22.8, "unit": "µM"},
      {"measurement": "GI50", "setting": "SNB-75 CNS", "value": 4.19, "unit": "µM"},
      {"measurement": "TGI", "setting": "SNB-75 CNS", "value": 25, "unit": "µM"},
      {"measurement": "GI50", "setting": "A498 renal", "value": 1.59, "unit": "µM"},
      {"measurement": "TGI", "setting": "A498 renal", "value": 3.32, "unit": "µM"},
      {"measurement": "GI50", "setting": "ACHN renal", "value": 3.04, "unit": "µM"},
      {"measurement": "TGI", "setting": "ACHN renal", "value": 41.6, "unit": "µM"},
      {"measurement": "GI50", "setting": "RXF 393 renal", "value": 2.87, "unit": "µM"},
      {"measurement": "TGI", "setting": "RXF 393 renal", "value": 9.36, "unit": "µM"},
      {"measurement": "GI50", "setting": "SK-OV-3 ovarian", "value": 2.58, "unit": "µM"}
    ]}
  ]
}
